Data on 14 substances can be found in patent publication US20020055174A1, “Complex for transferring an anionic substance of interest into a cell” (priority 2000, published 2002).

The nature of data set [1]: Liposome leakage assay, POPC/cholesterol 3:2 liposomes. The following applies: POPC/chol 3:2 liposomes.
Procedure: Increasing amounts of the indicated peptides were incubated with POPC/Cholesterol (3:2 mol/mol) liposomes for 30 min at RT. Emitted fluorescence was plotted against peptide concentration. […] B) Liposome leakage activity with complexes of ppTG1 and the plasmid pTG11236 at pH7.
1-Palmitoyl-2-Oleoyl-phosphatidylcholine (POPC) liposomes were prepared by the repeated freeze-thaw method followed by extrusion (Olson et al., 1979, Biochim. Biophys. Acta 557, 19-23). Ten μ-moles of POPC in chloroform were placed in a glass tube and solvent was evaporated under reduced pressure using a Labconco Rapidvap vortex evaporator (Uniequip, Germany). The resulting lipid film was hydrated with 0.5 ml of an aqueous solution of calcein (lOOmM calcein, 3.75 eq. NaOH, 50mM NaCl). The lipid suspension was sonicated until the solution became clear using a sonic water bath (Bransonic 221, Branson Ultrasonics Corp., USA). Five cycles of freeze-thaw were performed before liposomes were extruded by 4 passages through 200 nm pore diameter polycarbonate membranes (Nuclepore, Costar, Mass., USA). Free calcein was removed from calcein encapsulated into liposomes by gel exclusion chromatography using a Sephadex G-50 column (3 cm×14 cm) and a 200 mM NaCl, 25 mM HEPES, pH 7.3 solution as the elution buffer. The final lipid concentration was determined by a phosphorus assay (Bartlett, 1959, J. Biol. Chem. 234, 466-469). Liposomes' diameter was determined by dynamic laser light scattering using a Coulter N4 Plus submicron particle sizer (Coultronics France S. A, France). Measurements were performed within a 3 nm-10000 nm size window with a fixed 90° scattered light angle.
The liposome leakage assay was carried out as described in Planck et al. (1994, J. Biol. Chem. 269, 12918-12924). The liposome stock solution was diluted to a lipid concentration of 45 μM in 1.8× assay buffer (360 mM NaCl, 36 mM sodium citrate, pH 5 and pH 7). A 1:5 serial dilution of the tested peptide was carried out in a 96-well microtiter plate by transferring 20 μl of the peptide solution from one well to the next well and diluting with 80 μl H2O. 100 μl of the liposome solution was added in each well (final lipid concentration: 25 μM) and, after 30 min at room temperature, was assayed for fluorescence at 535 nm (excitation: 485 nm) on a microtiter plate fluorescence spectrometer (WALLAC, 1420 multilabel counter Victor). These conditions are appropriate to analyze fluorescein and as close as possible to the appropriate excitation/ emission profile of calcein (495 nm /515 nm). The value for 100% leakage was obtained by addition of 1 μl of a 10% Triton X-100 solution. Leakage activity was plotted against peptide concentration.
Liposome leakage activities were analyzed on liposomes consisting of POPC and cholesterol at a molar ratio of 3:2 (mol/mol).
Complexes of ppTG1 with plasmid DNA pTG11236 were tested for liposome leakage activity on POPC/chol 3:2 liposomes.
The series of ppTG1 derivatives as they are listed in Materials and Methods was tested for liposome leakage activity on POPC/chol 3:2 liposomes at pH7.
The subject of another data set is HeLa cells. Put plainly: Transfection in vitro, luciferase plasmid pTG11236. It counts as cell-based. The conditions noted are these: for transfection / gene transfer efficiency in vitro, in words: HeLa cells, 50 ng pTG11236, increasing charge ratios, day 1. As to the method:
Cells were plated on 24 well plates at a density of 4×10^4 (293-EBNA ) or 7×10^4 (HeLa, Renca) cells/well in DMEM supplemented with 10% FCS. The next day, the medium was replaced by 200 μl serum-free DMEM and plasmid (pTG11056 or pTG11236)/peptide complexes or plasmid/peptide/lipid complexes were prepared in 30 μl 0.9% NaCl or 5% glucose. After 20 min at room temperature these complexes were added to the cells which were then incubated for 2-3 h at 37° C. and 5% CO2 before 1 ml serum-containing DMEM was added. Approximately 20-hours later, cells were lysed by addition of 100 μl 1× Promega lysis buffer, 20 μl of the lysates were analysed for luciferase activity. Proteins were quantified with the bicinchonic acid (BCA) colorimetric method (Smith, Anal. Biochem. 150 (1985), 76-85).
In another experiment, 7×10^4 HeLa cells, seeded on 24-well plates the day before transfection, were transfected with 0.5 μg or 0.05 μg pTG11236, complexed with Lipofectin or ppTG1. The plasmid/peptide complexes were prepared in 30 μl of 5% glucose or 0.9% NaCl and added to the cells (200 μl serum-free medium) after 20 min at room temperature. Serum-containing medium was added after 3 h, the cells were harvested the next day.
A comparison of the effect on transfection efficiency of ppTG1 and JTS-1-K13 was carried out in HeLa cells. Complexes of 0.5 μg or 0.05 μg pTG11236 were formed with increasing amounts the respective peptide.
A comparison of ppTG1 and KALA was carried out in HeLa and CHO cells. 5×10^4 cells were seeded on 24 well plates. The next day, cells were transfected with 500 ng and 50 ng of pTG11236, complexed with ppTG1 or KALA in 30 μl 0.9% NaCl. The charge ratio +/− varied from 1, 2, 3, 4, 7 to 10. Cells were harvested 20 h after transfection and lysis was obtained in 100 μl Promega lysis buffer. Luciferase activity and total protein concentrations in 20 μl were determined.
HeLa cells were seeded at a density of 6×10^4 cells on 24 well plates. The next day, cells were incubated with 200 μl serum-free medium, 30 μl of plasmid (50 ng)/peptide/lipid mixtures were added and incubated for 3 h at 37° C. in 5% CO2. 1 ml of DMEM+10% FCS was then added. The next day, the medium was removed and cells were washed with 500 μl of PBS and subsequently treated with 100 μl of Promega lysis buffer. Plates were stored at −80° C. until luciferase activity was measured of 20 μl of the cell lysate. The protein assay was performed using the Pierce BCA kit.
JTS1 was dissolved to 1 mg/ml in 1 mM NaOH and mixed with DNA diluted in 5% glucose. ppTG1 was then added to this solution. The pcTG90/DOPE ppTG1 mixtures were prepared as described in Example 6. Transfection assays were performed on HeLa cells with 50 ng of plasmid as described in Example 6.
The series of ppTG1 derivatives listed in Material and Methods were tested for their gene transfer efficiencies in Hela cells. 6×10^4 cells were transfected with 50 ng pTG11236 complexed with increasing amounts of peptide. Luciferase activity was analyzed day 1 after transfection. The results are shown in FIG. 10B (ppTG20, ppTG21), FIG. 10C(ppTG25, ppTG26, ppTG27), FIG. 10D (ppTG28 to ppTG33), FIG. 10E (PEG-ppTG1 and PEG-ppTG20), FIG. 10F (ppTG22 to ppTG24) and FIG. 10G (ppTG20-D).

The conditions of data set [2]: pH 5 vs pH 7; cited from earlier work.
The subject of a further data set is plasmid pTG11236. Put plainly: Gel retardation assay (DNA binding). As to the method: 3μg of the plasmid pTG11236 were incubated with increasing amounts of the respective peptide in a final volume of 30 μl with 0.9% NaCl. After 20 min of incubation at room temperature, 6 μl 5× loading buffer (glycerol and bromphenol blue in TAE buffer) were added and 10 μl of these solutions were analyzed on a 1% agarose gel in the presence of ethidium bromide.
The ability of ppTG1 peptide to complex DNA was analyzed by gel retardation assays. […] After 20 minutes incubation at room temperature, loading buffer was added and 10 μl of the resulting solution were analyzed on a 1% agarose gel.
ppTG1 derivatives as they are indicated in Materials and Methods, were tested for their capacity to bind plasmid DNA by gel retardation assays.

In another data set the test system is B6SJL mice. The conditions noted are these: for gene transfer efficiency in the lung, in words: i.v., 50 or 60 μg pTG11236, day 1. As to the method: Indicated amounts of the luciferase expression plasmid pTG11236 were mixed with ppTG1 and /or pcTG90/DOPE. The resulting formulations were injected intramuscularly(30 μl), intravenously(250 μl) into mice or intratumorally (Renca tumors, 100 μgl). Muscles, tumors or organs were recovered at the indicated points of time, macerated and tested for luciferase activity with the luciferase assay kit from Promega.
60 μg or 30 μg of the plasmid pTG11236 were mixed with peptide ppTG1 and/or with a pcTG90/DOPE 1:2 mixture in 250 μl 5% glucose. After 20 min incubation at room temperature, the complexes were intravenously injected into B6SJL mice. Mice were sacrificed at day 1. The lungs were recovered, total protein was extracted and luciferase activity was analysed.
The potential of gene transfer with mono-component peptide vectors was investigated in vivo. Fifty or sixty μg of the luciferase expression plasmid pTG11236 were complexed with pcTG90/DOPE (1:2) [+/−] 10 in 250 μl 5% glucose (Meyer et al. 2000). The resulting lipoplex vector served as reference for gene transfer studies with pTG11236 complexed with ppTG1, ppTG20 and ppTG32 in 250 μl 5% glucose. Five mice per group were intravenously injected, the animals were sacrificed at day 1 after injection. Lungs were tested for luciferase activity.

Entries after “also recorded” stand apart in the source; their conditions may differ. Bridge positions count the residues as written; N and C are the ends. Ends that are not written are not given here.

Take CGLFKALLKLLKSLWKLLLKA [ppTG23]: the “liposome leakage activity, in words” value in data set [1] (pH7) was “slightly reduced membrane destruction”.
Still for that read-out and setting: to “CGLFKALLKLLKSLWKLLLKAC (cysteine pairing not given here) [ppTG24]” belongs “slightly reduced membrane destruction”.
On to GIFKAIIKIIKSIWKIIIKA [ppTG30], for which the “transfection / gene transfer efficiency in vitro, in words” value (from here on “transfection / gene transfer efficiency”) in the data set with HeLa cells was “diminished gene transfer efficiency in vitro; also recorded: reduced the efficiency of gene transfer”.
GIFRAIIRIIRSIWRIIIRA [ppTG31]: the “transfection / gene transfer efficiency” value in the data set with HeLa cells is reported as “diminished gene transfer efficiency in vitro; also recorded: reduced the efficiency of gene transfer”. For the same substance, the “liposome leakage activity, in words” value in data set [1] (pH7) is on record as “slightly reduced liposome leakage activity”.
As to “GLFEALLELLESLWELLLEA [reference compound]”, the “lysis of calcein containing phosphatidylcholine liposomes” value in data set [2] was “capable of lysing calcein containing phosphatidylcholine liposomes at pH 5, more efficiently than at a pH 7”. The “liposome leakage activity, in words” value was “high lysis activity” in data set [1] (pH5) and “reduced” in data set [1] (pH7). In addition, in the data set on plasmid pTG11236 (3 μg pTG11236 and 0.1 μg to 10 μg peptide), the “retardation of plasmid DNA” value is given as “not observed”.
Regarding GLFHALLHLLHSLWHLLLHA, in the data set on HeLa cells, the “transfection / gene transfer efficiency” value is “strongly reduced”. In addition, the “liposome leakage activity, in words” value in data set [1] (pH7) was “comparable to ppTG1”. For the same substance, the “DNA binding, in words” value in the data set on plasmid pTG11236 (pH5) is recorded as “binds plasmid DNA at pH5; also recorded: can bind DNA at pH5”.
Consider GLFKKLLKLLKKLWKLLLKA [ppTG28], for which, in the data set on HeLa cells, the “transfection / gene transfer efficiency” value was “comparable to ppTG1 and ppTG20; also recorded: did not change transfection efficiencies”. Besides, the “liposome leakage activity, in words” value in data set [1] (pH7) is on record as “slightly reduced liposome leakage activity”.
Take GLFRALLRLLRSLWRLLLRA [ppTG20]: in the data set on B6SJL mice (i.v. injection of peptide/pTG11236 complexes), the “toxicity in vivo, in words” value is reported as “less toxic than ppTG1”.
As to GLFRRLLRLLRRLWRLLLRA [ppTG29], in the data set with HeLa cells, the “transfection / gene transfer efficiency” value is “comparable to ppTG1 and ppTG20; also recorded: did not change transfection efficiencies”. In addition, the “liposome leakage activity, in words” value in data set [1] (pH7) is “slightly reduced liposome leakage activity”.
For GVFKAVVKVVKSVWKVVVKA [ppTG32], the “transfection / gene transfer efficiency” value with HeLa cells is given as “diminished gene transfer efficiency in vitro”. The “liposome leakage activity, in words” value in data set [1] (pH7) was “diminished liposome leakage activity; also recorded: significantly reduced liposome leakage activity”. In the data set on B6SJL mice, the “gene transfer efficiency in the lung, in words” value is given as “drastically reduced gene transfer efficiency; also recorded: did not lead to detectable reporter gene expression”.
For the substance GVFRAVVRVVRSVWRVVVRA [ppTG33], the “transfection / gene transfer efficiency” value in the data set on HeLa cells was “diminished gene transfer efficiency in vitro”. The “liposome leakage activity, in words” value in data set [1] (pH7) is “diminished liposome leakage activity; also recorded: significantly reduced liposome leakage activity”.
The corresponding values for “Gly-Leu-Phe-Arg-Ala-Leu-Leu-Arg-Leu-Leu-Arg-Ser-Leu-Trp-Arg-Leu-Leu-Leu-Arg-Ala (GLFRALLRLLRSLWRLLLRA; also: D-amino acids, places not given here) [ppTG20-D]” are “retained; also recorded: as efficient as ppTG1” and “retained”.
For “Gly-Leu-Phe-Glu-Ala-Leu-Leu-Glu-Leu-Leu-Glu-Ser-Leu-Trp-Glu-Leu-Leu-Leu-Glu-Ala-Cys-Cys-Tyr-Lys-Ala-Lys-Lys-Lys-Lys-Lys-Lys-Lys-Lys--Trp-Lys-Lys-Lys-Lys-Gln-Ser (GLFEALLELLESLWELLLEACCYKAKKKKKKKKWKKKKQS; disulfide 21-22) [JTS-1-K13, reference compound]”, the transfection entry in the data set with HeLa cells (0.05 μg plasmid DNA, FIG. 4) was “remains low”. Besides, the luciferase expression entry in the data set with HeLa cells (0.5 μg pTG11236 complexed with 1.5 μg peptide) is recorded as “high level of luciferase expression”. Also, the “liposome leakage activity, in words” value in data set [1] (pH5) is given as “low level release”; in data set [1] (pH7), “impeded in calcein release”. In the data set on B6SJL mice, the “gene transfer efficiency in the lung, in words” value is “low”.
Consider “WEAKLAKALAKALAKHLAKALAKALKACEA [reference compound]”, for which the “gene transfer at optimal charge ratio lower than for ppTG1” value in the data set with HeLa cells (HeLa, 500 ng pTG11236) amounted to 4 fold. In addition, the “liposome leakage activity, in words” value in data set [1] (pH5) and in data set [1] (pH7) was “could not liberate calcein” each time. Also, the “gene transfer efficiency in the lung, in words” value in the data set on B6SJL mice is “undetectable; also recorded: inefficient”.
